How the values were obtained:
[1] = tested on: nitrotyrosine; test: Nitrotyrosine production after rMCAo, Western blot of cerebral cortex extracts; format: in vivo, rat; conditions: 5 mg/kg; 68 kDa protein at 24 hours after rMCAo; P<0.05 compared to vehicle
[2] = tested on: reversible MCAo; test: Infarct volume by TTC staining after reversible MCAo (two hours of MCAo, then reperfusion); format: in vivo, rat; conditions: for Mean volume of the infarct: ±SEM, p<0.05
[3] = tested on: lipid peroxidation; test: Lipid peroxidation in rat synaptosomal preparation (TBA-reactive substances); format: biochemical; conditions: initiated by 2.5 μM Fe2SO4 and 500 μM ascorbic acid; rat synaptosomes
Procedure: Lipid peroxides in sedimented synaptosomal membranes were analyzed by 2-thiobarbituric acid (TBA) with the TBA-reactive substances determined spectrophotometrically (Ohkawa et al., 1979). *P<0.05

[4] = target: recombinant nNOS (Homo sapiens, UniProt P29475); conditions: recombinant nNOS and calcium dependent NOS activity in brain homogenates; from Osuka et al., 2001; cited from earlier work
Chain of recombinant nNOS (P29475 whole entry, species assumed): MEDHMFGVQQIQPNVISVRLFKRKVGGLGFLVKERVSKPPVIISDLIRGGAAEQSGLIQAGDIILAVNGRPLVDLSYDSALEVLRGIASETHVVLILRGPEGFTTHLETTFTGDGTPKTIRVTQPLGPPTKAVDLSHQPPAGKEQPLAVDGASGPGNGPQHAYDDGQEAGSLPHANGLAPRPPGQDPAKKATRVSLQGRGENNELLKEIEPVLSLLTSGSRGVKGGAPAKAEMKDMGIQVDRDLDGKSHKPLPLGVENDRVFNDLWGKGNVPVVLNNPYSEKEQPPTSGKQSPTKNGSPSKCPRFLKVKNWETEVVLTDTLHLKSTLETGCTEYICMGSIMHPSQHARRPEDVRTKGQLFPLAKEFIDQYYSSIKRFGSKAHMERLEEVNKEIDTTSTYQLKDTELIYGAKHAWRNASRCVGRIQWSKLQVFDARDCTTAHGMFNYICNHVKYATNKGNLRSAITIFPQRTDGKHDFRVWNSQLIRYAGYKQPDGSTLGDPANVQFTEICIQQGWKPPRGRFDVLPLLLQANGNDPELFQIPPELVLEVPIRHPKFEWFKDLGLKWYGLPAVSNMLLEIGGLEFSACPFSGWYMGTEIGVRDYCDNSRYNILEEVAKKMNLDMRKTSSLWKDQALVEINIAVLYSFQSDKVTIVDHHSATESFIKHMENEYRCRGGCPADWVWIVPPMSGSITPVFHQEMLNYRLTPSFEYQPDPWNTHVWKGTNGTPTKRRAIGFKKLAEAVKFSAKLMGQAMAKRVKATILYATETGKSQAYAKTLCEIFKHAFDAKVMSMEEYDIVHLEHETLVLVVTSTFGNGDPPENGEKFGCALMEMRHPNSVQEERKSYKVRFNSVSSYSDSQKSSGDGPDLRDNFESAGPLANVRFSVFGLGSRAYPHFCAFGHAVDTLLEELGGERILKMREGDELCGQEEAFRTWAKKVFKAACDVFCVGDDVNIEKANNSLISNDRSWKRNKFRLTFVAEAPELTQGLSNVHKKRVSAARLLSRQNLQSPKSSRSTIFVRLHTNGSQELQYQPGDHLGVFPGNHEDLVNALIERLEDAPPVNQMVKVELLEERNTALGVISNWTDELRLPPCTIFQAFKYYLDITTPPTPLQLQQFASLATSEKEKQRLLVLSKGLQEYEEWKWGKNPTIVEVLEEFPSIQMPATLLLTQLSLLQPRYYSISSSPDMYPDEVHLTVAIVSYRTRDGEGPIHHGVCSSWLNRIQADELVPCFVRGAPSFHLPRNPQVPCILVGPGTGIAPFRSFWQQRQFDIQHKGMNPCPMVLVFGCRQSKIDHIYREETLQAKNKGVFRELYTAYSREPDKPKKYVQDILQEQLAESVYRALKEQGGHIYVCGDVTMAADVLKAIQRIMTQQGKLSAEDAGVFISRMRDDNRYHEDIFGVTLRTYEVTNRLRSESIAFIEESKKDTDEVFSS

[5] = tested on: volume-regulated anion channels (VRACs); test: Blockade of volume-regulated anion channels in vitro
[6] = tested on: permanent MCAo; test: Infarct volume by TTC staining after permanent MCAo; format: in vivo, rat; conditions: 20 mg/kg, maintained by IP injections every 12 h
[7] = tested on: EAA release; test: Glutamate (EAA) release measured by microdialysis during and after ischemia (rMCAo); format: in vivo, rat; conditions: 5 mg/kg i.v. before rMCAO

CCC(=C(c1ccccc1)c1ccc(OCCN(C)C)cc1)c1ccccc1 (stereo in doubt) [tamoxifen, (Z)-2-[4-(1,2-diphenyl-1-butenyl)phenoxy]-N,N-dimethylethanamine]
Nitrotyrosine levels after rMCAo [1]: reduces nitrotyrosine levels | Infarct size ([2]; tamoxifen at two and four hours after the infarct, reperfusion): essentially identical to the mean for untreated control animals | Mean volume of the infarct ([2]; tamoxifen given 1 hour after reperfusing after two hours of MCAo, TTC staining 72 h): 33±13 mm^3 | Mean volume of the infarct ([2]; tamoxifen pretreatment, TTC staining 72 h after MCAo): 41±21 mm^3 | Lipid peroxidation [3]: inhibits lipid peroxidation | nNOS activity [4]: inhibits nNOS | VRAC blockade [5]: potently blocks VRACs | Infarct volume [6]: reduces infarct volumes | Contralateral glutamate levels [7]: no effect | EAA (glutamate) release during ischemia [7]: reduces EAA release
